This note sets out measurements from ChEMBL document CHEMBL1201862, “PubChem BioAssay data set” (2004).

Activity calls are given as the source filed them.

The target of experiment [1] is Genome polyprotein (dengue virus type 2, UniProt P29990). Kind of experiment: flavivirus cap methylation enzyme inhibition – biochemical, confirmation dose response, primary screen (AID 588689). It counts as functional.
The target in experiment [2] is Tyrosine-protein phosphatase non-receptor type 5 (Homo sapiens, UniProt P54829). Kind of experiment: PTPN5 enzyme inhibition – biochemical, fluorescence intensity, uHTS hits, confirmation (AID 602372). The class given is functional. To be noted: read-out: IC50_Mean.
The target of experiment [3] is Small ubiquitin-related modifier 1 (Homo sapiens, UniProt P63165). Kind of experiment: SUMO1 protein interaction blockers, potency – biochemical, fluorescence polarization, uHTS hits, dose response (AID 624382). It counts as functional. To be noted: read-out: IC50_Mean. For orientation: Fluorescence polarisation rises when a labelled molecule tumbles more slowly, as on binding a larger partner.

The target in experiment [4] is T1, Rac GTPase-activating protein 1 (Homo sapiens, UniProt Q9H0H5).
T1 sequence (Q9H0H5 whole entry): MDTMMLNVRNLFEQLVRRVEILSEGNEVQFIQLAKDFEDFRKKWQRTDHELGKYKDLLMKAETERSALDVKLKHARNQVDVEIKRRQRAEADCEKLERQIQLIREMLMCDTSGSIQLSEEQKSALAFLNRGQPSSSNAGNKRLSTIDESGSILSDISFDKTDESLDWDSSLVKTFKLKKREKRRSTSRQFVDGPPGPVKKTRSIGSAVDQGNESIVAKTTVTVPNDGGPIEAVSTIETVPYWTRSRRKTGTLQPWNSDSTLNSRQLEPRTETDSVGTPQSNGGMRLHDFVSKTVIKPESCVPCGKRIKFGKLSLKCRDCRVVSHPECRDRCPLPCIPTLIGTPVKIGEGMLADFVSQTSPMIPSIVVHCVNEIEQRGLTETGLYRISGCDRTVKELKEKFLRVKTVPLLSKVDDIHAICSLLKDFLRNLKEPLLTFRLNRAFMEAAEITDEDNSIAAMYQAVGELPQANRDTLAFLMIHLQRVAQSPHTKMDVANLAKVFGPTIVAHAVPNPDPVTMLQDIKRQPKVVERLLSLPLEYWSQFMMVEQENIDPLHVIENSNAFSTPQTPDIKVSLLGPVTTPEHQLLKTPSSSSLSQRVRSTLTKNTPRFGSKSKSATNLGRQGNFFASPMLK
The experiment is described as follows: blockers of MgcRacGAP-driven Rac1 GTP hydrolysis – biochemical, ADP Hunter fluorescence, primary and confirmatory, confirmation (AID 624330). The class given is functional.

The target in experiment [5] is Caspase-7 (Homo sapiens, UniProt P55210). Kind of experiment: caspase-7 enzyme inhibition, selectivity check – biochemical, DEVD-R110 fluorescence, cherry-pick, selectivity assay for caspase-6 inhibitor project, dose response (AID 743295). It counts as functional.
Experiment [6] deals with Caspase-8 (Homo sapiens, UniProt Q14790). The experiment is described as follows: inhibitors of purified CASP8 protease – biochemical, Z-IETD-R110 fluorescence, cherry-picked samples, selectivity assay for caspase-6 inhibitor project, dose response (AID 743294).
In experiment [7] the target is Kappa-type opioid receptor (Homo sapiens, UniProt P41145). It counts as functional.
The target of experiment [8] is T2, Heat shock factor protein 1 (Mus musculus, UniProt P38532).
T2 sequence (P38532 whole entry): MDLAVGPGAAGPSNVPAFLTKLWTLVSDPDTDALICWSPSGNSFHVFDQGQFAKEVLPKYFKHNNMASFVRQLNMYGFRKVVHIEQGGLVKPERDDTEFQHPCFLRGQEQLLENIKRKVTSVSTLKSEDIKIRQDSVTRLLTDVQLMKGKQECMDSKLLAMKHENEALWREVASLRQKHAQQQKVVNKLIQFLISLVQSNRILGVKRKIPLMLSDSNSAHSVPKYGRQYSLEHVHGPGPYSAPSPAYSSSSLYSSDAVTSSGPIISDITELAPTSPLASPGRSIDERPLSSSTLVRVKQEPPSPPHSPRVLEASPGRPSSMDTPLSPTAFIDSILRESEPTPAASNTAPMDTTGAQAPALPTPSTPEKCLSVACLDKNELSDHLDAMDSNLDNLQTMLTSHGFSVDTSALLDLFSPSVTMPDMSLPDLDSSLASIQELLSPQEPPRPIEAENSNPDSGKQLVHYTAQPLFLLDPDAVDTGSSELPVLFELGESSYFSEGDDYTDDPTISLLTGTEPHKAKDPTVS
Kind of experiment: enhancement of HSF1-driven luciferase signal – cell-based, NIH3T3, luminescence, dose retest, confirmation (AID 435004).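 Also: stress induced by proteasome inhibitor MG132 added 30 min after compound; luciferase reporter driven by HSF1 response element in NIH3T3 cells; actives raise luminescence as potentiators of the MG132 stress response.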 The class given is functional.

Experiment [9] relates to CHO. Kind of experiment: CHO cell viability loss, potency – luminescence, cytotoxicity control for TLR9-MyD88 binding inhibitor project, dose response (AID 588339).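 Also: CHO cells stably coexpressing TLR9 and MyD88 fusions from primary screen; compound exposure lasted 48 hours before viability readout.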 The class given is functional, cell-based, hamster. To be noted: Cricetulus griseus.
The target in experiment [10] is T3, Replicative DNA helicase DnaB (Mycobacterium tuberculosis, UniProt P9WMR3).
T3 sequence (P9WMR3 whole entry): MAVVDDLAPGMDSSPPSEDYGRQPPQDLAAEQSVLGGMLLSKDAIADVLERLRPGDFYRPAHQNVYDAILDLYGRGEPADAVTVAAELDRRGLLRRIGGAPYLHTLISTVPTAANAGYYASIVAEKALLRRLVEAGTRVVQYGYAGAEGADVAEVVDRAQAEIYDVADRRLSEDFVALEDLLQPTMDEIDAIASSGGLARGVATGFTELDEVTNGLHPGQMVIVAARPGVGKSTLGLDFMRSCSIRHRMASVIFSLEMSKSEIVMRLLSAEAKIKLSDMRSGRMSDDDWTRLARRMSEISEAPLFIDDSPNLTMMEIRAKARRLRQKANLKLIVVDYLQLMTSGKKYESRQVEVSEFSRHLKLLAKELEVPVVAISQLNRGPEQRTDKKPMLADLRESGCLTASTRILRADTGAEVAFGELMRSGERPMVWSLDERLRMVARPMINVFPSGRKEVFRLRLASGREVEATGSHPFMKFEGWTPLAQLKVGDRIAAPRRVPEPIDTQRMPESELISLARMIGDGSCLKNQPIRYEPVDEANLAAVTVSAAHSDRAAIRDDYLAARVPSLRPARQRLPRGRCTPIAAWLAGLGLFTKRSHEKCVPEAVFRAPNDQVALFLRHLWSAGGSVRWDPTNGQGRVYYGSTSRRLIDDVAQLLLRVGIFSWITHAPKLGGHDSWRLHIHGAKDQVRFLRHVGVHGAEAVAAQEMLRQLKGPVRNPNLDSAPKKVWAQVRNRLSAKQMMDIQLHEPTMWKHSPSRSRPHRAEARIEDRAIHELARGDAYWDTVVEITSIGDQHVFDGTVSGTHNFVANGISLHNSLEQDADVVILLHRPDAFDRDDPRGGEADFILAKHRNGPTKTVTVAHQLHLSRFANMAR
The experiment is described as follows: DnaB intein splicing inhibitors, dose response, biochemical, cell-free fluorescence (AID 449749). It counts as functional.

Experiment [11] in a line: viability loss in THP-1 monocytes – THP-1 cells, cytotoxicity control for Vif-APOBEC3G degradation inhibitor project, dose response (AID 1117359). It counts as functional. Particulars: THP-1.

Chain of Genome polyprotein (P29990 2492-3391 limits assumed): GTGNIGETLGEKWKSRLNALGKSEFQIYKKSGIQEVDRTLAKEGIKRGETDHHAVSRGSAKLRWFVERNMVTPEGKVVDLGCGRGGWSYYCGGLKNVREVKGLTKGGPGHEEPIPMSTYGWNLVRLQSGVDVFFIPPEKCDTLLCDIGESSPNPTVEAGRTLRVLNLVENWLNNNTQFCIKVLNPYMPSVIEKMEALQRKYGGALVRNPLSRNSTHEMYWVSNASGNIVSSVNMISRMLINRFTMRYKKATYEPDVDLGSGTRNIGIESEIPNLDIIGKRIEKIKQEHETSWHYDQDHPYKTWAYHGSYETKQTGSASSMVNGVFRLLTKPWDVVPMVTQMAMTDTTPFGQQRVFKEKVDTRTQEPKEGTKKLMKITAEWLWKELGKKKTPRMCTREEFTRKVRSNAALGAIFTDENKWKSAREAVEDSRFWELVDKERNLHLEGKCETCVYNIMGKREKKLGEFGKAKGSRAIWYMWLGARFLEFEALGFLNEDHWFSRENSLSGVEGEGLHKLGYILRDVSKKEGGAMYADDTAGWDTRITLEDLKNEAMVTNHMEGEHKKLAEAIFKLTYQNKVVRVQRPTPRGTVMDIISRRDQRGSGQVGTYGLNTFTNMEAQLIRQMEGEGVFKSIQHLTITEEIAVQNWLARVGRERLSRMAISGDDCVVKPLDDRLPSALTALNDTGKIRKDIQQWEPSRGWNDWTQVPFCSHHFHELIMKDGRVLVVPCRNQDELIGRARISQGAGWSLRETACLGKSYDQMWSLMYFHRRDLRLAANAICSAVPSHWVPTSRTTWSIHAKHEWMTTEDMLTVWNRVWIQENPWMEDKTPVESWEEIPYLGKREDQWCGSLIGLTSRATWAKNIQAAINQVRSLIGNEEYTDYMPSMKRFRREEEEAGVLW
Chain of Small ubiquitin-related modifier 1 (P63165 whole entry): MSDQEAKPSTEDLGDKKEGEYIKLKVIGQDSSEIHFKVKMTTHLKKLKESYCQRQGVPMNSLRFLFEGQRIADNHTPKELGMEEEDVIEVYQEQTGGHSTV
Chain of Caspase-7 (P55210 24-198 limits assumed): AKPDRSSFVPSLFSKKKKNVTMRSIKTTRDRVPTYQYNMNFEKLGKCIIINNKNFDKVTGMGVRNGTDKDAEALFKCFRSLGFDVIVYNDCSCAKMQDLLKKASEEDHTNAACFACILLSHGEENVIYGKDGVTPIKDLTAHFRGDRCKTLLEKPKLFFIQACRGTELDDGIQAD
Chain of Caspase-7 (P55210 207-303 limits assumed): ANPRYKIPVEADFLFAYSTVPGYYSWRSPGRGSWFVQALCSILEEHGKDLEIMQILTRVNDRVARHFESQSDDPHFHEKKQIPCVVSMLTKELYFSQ
Chain of Kappa-type opioid receptor (P41145 whole entry): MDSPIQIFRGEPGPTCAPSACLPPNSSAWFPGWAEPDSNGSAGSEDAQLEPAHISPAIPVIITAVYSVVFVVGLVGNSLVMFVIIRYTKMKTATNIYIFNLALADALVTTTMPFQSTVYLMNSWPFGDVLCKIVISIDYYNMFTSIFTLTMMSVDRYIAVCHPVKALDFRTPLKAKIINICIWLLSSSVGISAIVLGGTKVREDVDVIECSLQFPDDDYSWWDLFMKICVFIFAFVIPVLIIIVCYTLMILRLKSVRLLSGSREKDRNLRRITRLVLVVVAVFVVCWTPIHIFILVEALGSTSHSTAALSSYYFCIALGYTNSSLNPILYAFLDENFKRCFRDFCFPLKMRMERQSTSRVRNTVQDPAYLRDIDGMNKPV
Chain of Caspase-8 (Q14790 217-374 limits assumed): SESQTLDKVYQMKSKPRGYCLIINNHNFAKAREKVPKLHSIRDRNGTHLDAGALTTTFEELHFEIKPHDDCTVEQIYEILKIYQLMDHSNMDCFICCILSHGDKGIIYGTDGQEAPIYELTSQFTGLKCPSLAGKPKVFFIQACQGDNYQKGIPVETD
Chain of Caspase-8 (Q14790 385-479 limits assumed): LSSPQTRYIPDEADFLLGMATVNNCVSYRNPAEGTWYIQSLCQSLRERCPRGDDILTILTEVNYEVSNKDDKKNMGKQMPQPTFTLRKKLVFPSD
Chain of Tyrosine-protein phosphatase non-receptor type 5 (P54829 whole entry): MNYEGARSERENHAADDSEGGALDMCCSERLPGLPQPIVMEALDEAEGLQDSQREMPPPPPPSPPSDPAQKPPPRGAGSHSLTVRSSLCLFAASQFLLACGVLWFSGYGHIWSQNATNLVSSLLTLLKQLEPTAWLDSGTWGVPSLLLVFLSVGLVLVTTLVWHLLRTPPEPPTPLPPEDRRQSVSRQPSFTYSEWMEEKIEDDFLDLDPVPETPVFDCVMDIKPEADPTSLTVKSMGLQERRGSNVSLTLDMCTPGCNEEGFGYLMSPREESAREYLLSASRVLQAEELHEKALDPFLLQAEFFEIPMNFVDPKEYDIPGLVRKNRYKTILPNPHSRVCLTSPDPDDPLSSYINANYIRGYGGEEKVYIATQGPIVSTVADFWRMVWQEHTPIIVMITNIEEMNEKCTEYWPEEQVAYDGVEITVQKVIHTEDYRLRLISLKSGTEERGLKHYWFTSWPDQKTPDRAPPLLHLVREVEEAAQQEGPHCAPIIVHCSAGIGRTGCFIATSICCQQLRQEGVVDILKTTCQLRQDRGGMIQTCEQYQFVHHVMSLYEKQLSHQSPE

Consider `O=S(=O)(O)c1cc(O)c2cc(Nc3ccccc3)ccc2c1`, for which the IC50 in [1] is 19.4 µM (active); in [2], 6.49 µM (active); in [3] it was > 66.6 µM (inactive); in [4], 37.9 µM (active). Besides, the AC50 (usually the concentration giving half of the maximal activity seen) in [5] was 30.2 µM (active); in experiment [6] it was > 70 µM (inactive).

As for `O=[N+]([O-])c1c(Nc2ccccc2O)cc(Cl)c2nonc12`, the figures for the IC50 in experiment [7], in experiment [9] and in experiment [1] were 2.89 µM (active), 1.36 µM (active) and 9.7 µM (active), respectively. Moreover, the EC50 (usually the midpoint of the concentration-response curve) in experiment [8] is 3.49 µM (inconclusive). In addition, in experiment [10], the concentration at half-maximal activity (AC50) is 2.19 µM (active). The CC50 (in general, the concentration that lowers cell viability or growth by half) in experiment [11] is 12.2 µM (active).
